A word on the IC50: it is the concentration that gives 50% inhibition. By DC50 is commonly meant the concentration giving 50% degradation.

Bounds are passed on as bounds.

Results on eleven compounds are retold here after article PMC11513893, “Discovery of Oral Degraders of the ROS1 Fusion Protein with Potent Activity against Secondary Resistance Mutations” (Journal of Medicinal Chemistry, 2024).

Experiment [1] relates to Ba/F3 CD74-ROS1 non mutant. The experiment in a line: Antiproliferation assay (Alamar Blue, 72 h). Conditions: Mus musculus, BaF3, 72 h, Ba/F3 cells, cell growth inhibition. In kind it is cell-based, mouse. An excerpt: (§1) To assess targeted degradation of ROS1 fusion proteins, we first established a mouse pro-B cell line Ba/F3 as a model expressing the CD74-ROS1 oncogene or CD74-ROS1 with clinically observed secondary/tertiary mutations. The Ba/F3 cell line is dependent on interleukin-3 for survival and proliferation. Upon transduction of oncogenic ROS1, Ba/F3 cells become independent of interleukin-3 but dependent on the transduced driver gene.
(§2) Ba/F3 immortalized murine bone marrow–derived pro-B cells were obtained from Creative Biogene (Shirley, NY) and cultured in RPMI supplemented with 10% FBS and IL3 (0.5 ng/mL). Ba/F3 cells expressing ROS1 variants were maintained in RPMI supplemented with 10% FBS and puromycin (0.7 mg/mL). […] Each compound was dissolved in DMSO and serially diluted in RPMI for cell culture experiments.
(§3) To assess the 72 h effect of drug treatment on cell proliferation, 2000 to 3000 cells were plated in replicates of three in 96-well plates. The plates were placed in an incubator at 37 °C, 5% CO2 for 72 h. Following drug treatments, the cells were incubated with the Alamar Blue Assay reagent (BioRad), 5 μL each well for 4 h at 37 °C and 5% CO2. Luminescence was measured on a multiplate reader and analyzed. […] IC50 values were determined using a nonlinear regression model with a sigmoidal dose response in GraphPad. The data were collected based on triplicate experiments, and presented as mean ± SD.
(§4) The resulting virus was used to infect Ba/F3 cells. After retroviral infection, Ba/F3 cells were selected by incubation with puromycin (0.7 mg/mL) for 2 weeks. For Ba/F3 cells infected by the CD74–ROS1 variants, IL3 was withdrawn from the culture medium at least 2 weeks before the experiments.
(The colour change of resazurin is a common sign of viable cells or microbes.)

A further experiment concerns Ba/F3 ROS1-G2032R. The experiment in a line: Antiproliferation assay. It is filed as cell-based, mouse. Conditions: Mus musculus, BaF3; Ba/F3 cells, cell growth inhibition, 72 h.
From the text: as §1, §2, §3, §4

A further experiment relates to ROS1. Description: ROS1 degradation in Ba/F3 cells (WES immunoblotting). In kind it is cell-based. The note with it: for DC50: concentration needed to reduce ROS1 protein by 50%, Ba/F3 cells; for Dmax (%) (ROS1): maximal degradation of ROS1 in Ba/F3 cells. How it is done: Protein levels were analyzed using a WES instrument according to the WES User Guide from ProteinSimple in duplicate experiments. The samples were mixed with the fluorescent 5 master mix (ProteinSimple) and then heated at 95 °C for 5 min. Boiled samples, biotinylated protein ladder, antibody diluent, Streptavidin-HRP, primary antibodies, ProteinSimple horseradish peroxidase conjugated antirabbit or antimouse secondary antibodies, luminol-peroxide, and wash buffer were loaded into the WES plate (Wes 12–230 kDa Prefilled Plates with Split Buffer, ProteinSimple). The plates and capillary cartridges were loaded into the WES instrument, and protein separation, antibody incubation, and imaging were performed according to manufacturer’s instructions. Compass software (ProteinSimple) was used to acquire the data and to generate the virtual blot image reconstruction and chemiluminescence signal intensity electropherograms. […] Protein levels are expressed as the AUC of the peak chemiluminescence intensity. Antibodies against phospho-ROS1(Tyr2274/2334) (E8F5J), ROS1 (D4D6(R)) were obtained from Cell Signaling Technology.
On the technique in general: A western blot detects proteins with antibodies after separation by electrophoresis.

In the case of `Cc1cc(Nc2ncc(Cl)c(Nc3ccccc3S(=O)(=O)C(C)C)n2)c(OC(C)C)cc1C1CCN(C2CCN(c3cccc4c3C(=O)N(C3CCC(=O)NC3=O)C4=O)CC2)CC1` (centres unmarked) [8c, 4-(4-(4-((5-Chloro-4-((2-(isopropylsulfonyl)phenyl)amino)pyrimidin-2-yl)amino)-5-isopropoxy-2-methylphenyl)-[1,4′-bipiperidin]-1′-yl)-2-(2,6-dioxopiperidin-3-yl)isoindoline-1,3-dione], the IC50 in experiment [1] is 107 ± 16 nM; in the experiment with Ba/F3 ROS1-G2032R it was 1260 ± 93 nM. Moreover, in the experiment with ROS1, it took 143 nM to reach half-maximal degradation (DC50). For the same compound, the “Dmax (%) (ROS1)” value in the experiment with ROS1 came to 82%.

Consider `Cc1cc(Nc2ncc(Cl)c(Nc3ccccc3S(=O)(=O)C(C)C)n2)c(OC(C)C)cc1C1CCN(C2CCN(CCNc3cccc4c3C(=O)N(C3CCC(=O)NC3=O)C4=O)CC2)CC1` (centres unmarked) [8d, 4-((2-(4-(4-((5-Chloro-4-((2-(isopropylsulfonyl)phenyl)amino)pyrimidin-2-yl)amino)-5-isopropoxy-2-methylphenyl)-[1,4′-bipiperidin]-1′-yl)ethyl)amino)-2-(2,6-dioxopiperidin-3-yl)isoindoline-1,3-dione], for which the IC50 in experiment [1] came out at 183 ± 41 nM. This compound had an IC50 in the experiment with Ba/F3 ROS1-G2032R of 2560 ± 242 nM. For the same compound, in the experiment on ROS1, the DC50 stood at 302 nM and the “Dmax (%) (ROS1)” value was 66%.

Take `Cc1cc(Nc2ncc(Cl)c(Nc3ccccc3S(=O)(=O)C(C)C)n2)c(OC(C)C)cc1C1CCN(C2CCN(CCCNc3cccc4c3C(=O)N(C3CCC(=O)NC3=O)C4=O)CC2)CC1` (centres unmarked) [8e, 4-((3-(4-(4-((5-Chloro-4-((2-(isopropylsulfonyl)phenyl)amino)pyrimidin-2-yl)amino)-5-isopropoxy-2-methylphenyl)-[1,4′-bipiperidin]-1′-yl)propyl)amino)-2-(2,6-dioxopiperidin-3-yl)isoindoline-1,3-dione]: the results for the IC50 (in experiment [1]; with Ba/F3 ROS1-G2032R) were 562 ± 61 nM and more than 10000 nM, respectively. This compound came in with a DC50 with ROS1 of 733 nM. In the experiment with ROS1, the “Dmax (%) (ROS1)” value is recorded as 28%.

In experiment [1], `Cc1cc(Nc2ncc(Cl)c(Nc3ccccc3S(=O)(=O)C(C)C)n2)c(OC(C)C)cc1C1CCN(C2CCN(C3CN(c4cccc5c4C(=O)N(C4CCC(=O)NC4=O)C5=O)C3)CC2)CC1` (centres unmarked) [8f, 4-(3-(4-(4-((5-Chloro-4-((2-(isopropylsulfonyl)phenyl)amino)pyrimidin-2-yl)amino)-5-isopropoxy-2-methylphenyl)-[1,4′-bipiperidin]-1′-yl)azetidin-1-yl)-2-(2,6-dioxopiperidin-3-yl)isoindoline-1,3-dione] had an IC50 of 115 ± 22 nM. Moreover, in the experiment with Ba/F3 ROS1-G2032R, the IC50 was found to be 3660 ± 299 nM. Besides, in the experiment on ROS1, half-maximal degradation (DC50) was put at 189 nM and the “Dmax (%) (ROS1)” value stood at 67%.

In turn, `Cc1cc(Nc2ncc(Cl)c(Nc3ccccc3S(=O)(=O)C(C)C)n2)c(OC(C)C)cc1C1CCN(C2CCN(CC3CN(c4cccc5c4C(=O)N(C4CCC(=O)NC4=O)C5=O)C3)CC2)CC1` (centres unmarked) [8g, 4-(3-((4-(4-((5-Chloro-4-((2-(isopropylsulfonyl)phenyl)amino)pyrimidin-2-yl)amino)-5-isopropoxy-2-methylphenyl)-[1,4′-bipiperidin]-1′-yl)methyl)azetidin-1-yl)-2-(2,6-dioxopiperidin-3-yl)isoindoline-1,3-dione] yielded an IC50 in experiment [1] of 191 ± 60 nM. Further, the IC50 in the experiment on Ba/F3 ROS1-G2032R turned out to be 950 ± 67 nM. For the same compound, in the experiment on ROS1, the DC50 is 155 nM and the “Dmax (%) (ROS1)” value amounted to 77%.

As to `Cc1cc(Nc2ncc(Cl)c(Nc3ccccc3S(=O)(=O)C(C)C)n2)c(OC(C)C)cc1C1CCN(CCNc2ccc3c(c2)C(=O)N(C2CCC(=O)NC2=O)C3=O)CC1` (centres unmarked) [8h, 5-((2-(4-(4-((5-Chloro-4-((2-(isopropylsulfonyl)phenyl)amino)pyrimidin-2-yl)amino)-5-isopropoxy-2-methylphenyl)piperidin-1-yl)ethyl)amino)-2-(2,6-dioxopiperidin-3-yl)isoindoline-1,3-dione], the IC50 in experiment [1] worked out at 128 ± 39 nM. Besides, half-maximal inhibition with Ba/F3 ROS1-G2032R (IC50) was put at 6630 ± 1800 nM. Also, in the experiment on ROS1, it took 145 nM to reach half-maximal degradation (DC50) and the “Dmax (%) (ROS1)” value is recorded as 71%.

`Cc1cc(Nc2ncc(Cl)c(Nc3ccccc3S(=O)(=O)C(C)C)n2)c(OC(C)C)cc1C1CCN(CCCNc2ccc3c(c2)C(=O)N(C2CCC(=O)NC2=O)C3=O)CC1` (centres unmarked) [8i, 5-((3-(4-(4-((5-Chloro-4-((2-(isopropylsulfonyl)phenyl)amino)pyrimidin-2-yl)amino)-5-isopropoxy-2-methylphenyl)piperidin-1-yl)propyl)amino)-2-(2,6-dioxopiperidin-3-yl)isoindoline-1,3-dione] came in with an IC50 in experiment [1] of 93 ± 50 nM. Further, in the experiment on Ba/F3 ROS1-G2032R, the IC50 came out at 4710 ± 486 nM. Also, in the experiment on ROS1, half-maximal degradation (DC50) was put at 88 nM and the “Dmax (%) (ROS1)” value is reported as 84%.

Consider `Cc1cc(Nc2ncc(Cl)c(Nc3ccccc3S(=O)(=O)C(C)C)n2)c(OC(C)C)cc1C1CCN(C2CCN(c3ccc4c(c3)C(=O)N(C3CCC(=O)NC3=O)C4=O)CC2)CC1` (centres unmarked) [8j, 5-(4-(4-((5-Chloro-4-((2-(isopropylsulfonyl)phenyl)amino)pyrimidin-2-yl)amino)-5-isopropoxy-2-methylphenyl)-[1,4′-bipiperidin]-1′-yl)-2-(2,6-dioxopiperidin-3-yl)isoindoline-1,3-dione], for which the IC50 in experiment [1] came to 39 ± 8 nM. For the same compound, in the experiment on Ba/F3 ROS1-G2032R, the IC50 worked out at 1530 ± 521 nM. Besides, in the experiment with ROS1, the DC50 amounted to 41 nM and the “Dmax (%) (ROS1)” value turned out to be 88%.

`Cc1cc(Nc2ncc(Cl)c(Nc3ccccc3S(=O)(=O)C(C)C)n2)c(OC(C)C)cc1C1CCN(C2CCN(CCNc3ccc4c(c3)C(=O)N(C3CCC(=O)NC3=O)C4=O)CC2)CC1` (centres unmarked) [8k, 5-((2-(4-(4-((5-Chloro-4-((2-(isopropylsulfonyl)phenyl)amino)pyrimidin-2-yl)amino)-5-isopropoxy-2-methylphenyl)-[1,4′-bipiperidin]-1′-yl)ethyl)amino)-2-(2,6-dioxopiperidin-3-yl)isoindoline-1,3-dione]: the IC50 in experiment [1] is 171 ± 26 nM; in the experiment with Ba/F3 ROS1-G2032R, 8590 ± 1180 nM. For the same compound, it took 204 nM to reach half-maximal degradation in the experiment with ROS1 (DC50). For the same compound, in the experiment on ROS1, the “Dmax (%) (ROS1)” value worked out at 89%.

For the compound `Cc1cc(Nc2ncc(Cl)c(Nc3ccccc3S(=O)(=O)C(C)C)n2)c(OC(C)C)cc1C1CCN(C2CCN(CCCNc3ccc4c(c3)C(=O)N(C3CCC(=O)NC3=O)C4=O)CC2)CC1` (centres unmarked) [8l, 5-((3-(4-(4-((5-Chloro-4-((2-(isopropylsulfonyl)phenyl)amino)pyrimidin-2-yl)amino)-5-isopropoxy-2-methylphenyl)-[1,4′-bipiperidin]-1′-yl)propyl)amino)-2-(2,6-dioxopiperidin-3-yl)isoindoline-1,3-dione], in experiment [1], the IC50 turned out to be 598 ± 147 nM. In addition, the IC50 in the experiment on Ba/F3 ROS1-G2032R is more than 10000 nM. In the experiment with ROS1, the DC50 worked out at 452 nM and the “Dmax (%) (ROS1)” value turned out to be 54%.

Consider `Cc1cc(Nc2ncc(Cl)c(Nc3ccccc3S(=O)(=O)C(C)C)n2)c(OC(C)C)cc1C1CCN(C2CCN(C3CN(c4ccc5c(c4)C(=O)N(C4CCC(=O)NC4=O)C5=O)C3)CC2)CC1` (centres unmarked) [8m, 5-(3-(4-(4-((5-Chloro-4-((2-(isopropylsulfonyl)phenyl)amino)pyrimidin-2-yl)amino)-5-isopropoxy-2-methylphenyl)-[1,4′-bipiperidin]-1′-yl)azetidin-1-yl)-2-(2,6-dioxopiperidin-3-yl)isoindoline-1,3-dione], for which the IC50 in experiment [1] was 39 ± 34 nM; with Ba/F3 ROS1-G2032R, 2770 ± 1080 nM. This compound registered a half-maximal degradation concentration (DC50) in the experiment on ROS1 of 35 nM. Also, the “Dmax (%) (ROS1)” value with ROS1 is listed as 92%.
